This note sets out measurements from patent US20220227737A1, “NOVEL OXALYL PIPERAZINES ACTIVE AGAINST THE HEPATITIS B VIRUS (HBV)” (AiCuris GmbH & Co. KG, priority 2019, published 2022).

Where only a bound is given, the exact number is not on record here.

T1 sequence (P03146 whole entry, the tested form may be a part): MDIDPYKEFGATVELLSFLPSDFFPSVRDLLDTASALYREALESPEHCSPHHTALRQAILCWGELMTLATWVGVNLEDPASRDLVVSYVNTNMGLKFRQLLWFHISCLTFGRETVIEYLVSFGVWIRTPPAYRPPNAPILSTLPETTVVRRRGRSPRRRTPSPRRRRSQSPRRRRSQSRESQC

This assay concerns the target T1, C-terminal truncated core protein (HBV core dimer, BODIPY-FL labelled) (UniProt P03146).
T1 construct: fused on or other part: One added cysteine at position 150, labelled with BODIPY-FL maleimide; The C-terminal arginine-rich domain is absent
In words: Biochemical capsid assembly assay (fluorescence quenching). As for the experimental part: Biochemical Capsid Assembly Assay
The screening for assembly effector activity was done based on a fluorescence quenching assay published by Zlotnick et al. (2007). The C-terminal truncated core protein containing 149 amino acids of the N-terminal assembly domain fused to a unique cysteine residue at position 150 and was expressed in E. coli using the pET expression system (Merck Chemicals, Darmstadt). Purification of core dimer protein was performed using a sequence of size exclusion chromatography steps. In brief, the cell pellet from 1 L BL21 (DE3) Rosetta2 culture expressing the coding sequence of core protein cloned NdeI/XhoI into expression plasmid pET21b was treated for 1 h on ice with a native lysis buffer (Qproteome Bacterial Protein Prep Kit; Qiagen, Hilden). After a centrifugation step the supernatant was precipitated during 2 h stirring on ice with 0.23 g/ml of solid ammonium sulfate. Following further centrifugation the resulting pellet was resolved in buffer A (100 mM Tris, pH 7.5; 100 mM NaCl; 2 mM DTT) and was subsequently loaded onto a buffer A equilibrated CaptoCore 700 column (GE HealthCare, Frankfurt). The column flow through containing the assembled HBV capsid was dialyzed against buffer N (50 mM NaHCO3 pH 9.6; 5 mM DTT) before urea was added to a final concentration of 3M to dissociate the capsid into core dimers for 1.5 h on ice. The protein solution was then loaded onto a 1 L Sephacryl 5300 column. After elution with buffer N core dimer containing fractions were identified by SDS-PAGE and subsequently pooled and dialyzed against 50 mM HEPES pH 7.5; 5 mM DTT. To improve the assembly capacity of the purified core dimers a second round of assembly and disassembly starting with the addition of 5 M NaCl and including the size exclusion chromatography steps described above was performed. From the last chromatography step core dimer containing fractions were pooled and stored in aliquots at concentrations between 1.5 to 2.0 mg/ml at −80° C.
Immediately before labelling the core protein was reduced by adding freshly prepared DTT in a final concentration of 20 mM. After 40 min incubation on ice storage buffer and DTT was removed using a Sephadex G-25 column (GE HealthCare, Frankfurt) and 50 mM HEPES, pH 7.5. For labelling 1.6 mg/ml core protein was incubated at 4° C. and darkness overnight with BODIPY-FL maleimide (Invitrogen, Karlsruhe) in a final concentration of 1 mM. After labelling the free dye was removed by an additional desalting step using a Sephadex G-25 column. Labelled core dimers were stored in aliquots at 4° C. In the dimeric state the fluorescence signal of the labelled core protein is high and is quenched during the assembly of the core dimers to high molecular capsid structures. The screening assay was performed in black 384 well microtiter plates in a total assay volume of 10 μl using 50 mM HEPES pH 7.5 and 1.0 to 2.0 μM labelled core protein. Each screening compound was added in 8 different concentrations using a 0.5 log-unit serial dilution starting at a final concentration of 100 μM, 31.6 μM or 10 μM, In any case the DMSO concentration over the entire microtiter plate was 0.5%. The assembly reaction was started by the injection of NaCl to a final concentration of […] which induces the assembly process to approximately 25% of the maximal quenched signal. […] after starting the reaction the fluorescence signal was measured using a Clariostar plate reader (BMG Labtech, Ortenberg) with an excitation of 477 nm and an emission of 525 nm. As 100% and 0% assembly control HEPES buffer containing 2.5 M and 0 M NaCl was used. Experiments were performed thrice in triplicates. EC50 values were calculated by non-linear regression analysis using the Graph Pad Prism 6 software (GraphPad Software, La Jolla, USA).
`CC(C)(C)NC(=O)C(=O)N1CCN(C(=O)c2cc3cc(F)c(Cl)cc3[nH]2)CC1` [Example 45, N-(tert-butyl)-2-(4-(6-chloro-5-fluoro-1H-indole-2-carbonyl)piperazin-1-yl)-2-oxoacetamide] showed an IC50 of 5 to 10 µM.
In turn, `O=C(NC1CCCCCC1)C(=O)N1CCN(C(=O)c2cc3ccccc3[nH]2)CC1` [Example 70, N-cycloheptyl-2-[4-(1H-indole-2-carbonyl)piperazin-1-yl]-2-oxoacetamide] had an IC50 of 5 to 10 µM.
The result for `CC1(NC(=O)C(=O)N2CCN(C(=O)c3cc4ccccc4[nH]3)CC2)CCCCCC1` [Example 66, 2-[4-(1H-indole-2-carbonyl)piperazin-1-yl]-N-(1-methylcycloheptyl)-2-oxoacetamide] reads 5 to 10 µM; that for `CC(C)(C)NC(=O)C(=O)N1CCCN(C(=O)c2cc3ccccc3[nH]2)CC1` [Example 51, 2-(4-(1H-indole-2-carbonyl)-1,4-diazepan-1-yl)-N-(tert-butyl)-2-oxoacetamide], below 100 µM; that for `CC(C)(CCCO)NC(=O)C(=O)N1CCN(C(=O)c2cc3ccccc3[nH]2)CC1` [Example 68, N-(5-hydroxy-2-methylpentan-2-yl)-2-[4-(1H-indole-2-carbonyl)piperazin-1-yl]-2-oxoacetamide], below 5 µM.
In turn, `CNC(=O)C1(CNC(=O)C(=O)N2CCN(C(=O)c3cc4ccccc4[nH]3)CC2)CCC1` [Example 22, 1-((2-(4-(1H-indole-2-carbonyl)piperazin-1-yl)-2-oxoacetamido)methyl)-N-methylcyclobutane-1-carboxamide] registered an IC50 below 100 µM.
As to `CC1(NC(=O)C(=O)N2CCN(C(=O)c3cc4ccccc4[nH]3)CC2)CCOCC1` [Example 39, 2-(4-(1H-indole-2-carbonyl)piperazin-1-yl)-N-(4-methyltetrahydro-2H-pyran-4-yl)-2-oxoacetamide], the IC50 was below 5 µM.
The same measure for `CCCCNC(=O)C(=O)N1CCN(C(=O)c2cc3cc(F)ccc3[nH]2)CC1` [Example 27, N-butyl-2-(4-(5-fluoro-1H-indole-2-carbonyl)piperazin-1-yl)-2-oxoacetamide]: below 5 µM; for `O=C(N[C@H]1CC[C@H](O)CC1)C(=O)N1CCN(C(=O)c2cc3ccccc3[nH]2)CC1` [Example 33, 2-(4-(1H-indole-2-carbonyl)piperazin-1-yl)-N-((1r,4r)-4-hydroxycyclohexyl)-2-oxoacetamide]: below 100 µM.
On to `CCC(C)(C)NC(=O)C(=O)N1CCN(C(=O)c2cc3ccccc3[nH]2)CC1` [Example 67, 2-[4-(1H-indole-2-carbonyl)piperazin-1-yl]-N-(2-methylbutan-2-yl)-2-oxoacetamide], for which the IC50 is below 5 µM.
The same measure for `Cc1cccc2[nH]c(C(=O)N3CCN(C(=O)C(=O)NC(C)(C)C)CC3)cc12` [Example 44, N-(tert-butyl)-2-(4-(4-methyl-1H-indole-2-carbonyl)piperazin-1-yl)-2-oxoacetamide]: below 5 µM; for `C[C@H](NC(=O)C(=O)N1CCN(C(=O)c2cc3ccccc3[nH]2)CC1)C(F)(F)F` [Example 37, 2-[4-(1H-indole-2-carbonyl)piperazin-1-yl]-2-oxo-N-[(2S)-1,1,1-trifluoropropan-2-yl]acetamide]: below 5 µM.
The result for `COCC1(NC(=O)C(=O)N2CCN(C(=O)c3cc4ccccc4[nH]3)CC2)CCC1` [Example 41, 2-(4-(1H-indole-2-carbonyl)piperazin-1-yl)-N-(1-(methoxymethyl)cyclobutyl)-2-oxoacetamide] reads below 5 µM; that for `C[C@H]1CN(C(=O)C(=O)NC(C)(C)C)CCN1C(=O)c1cc2ccccc2[nH]1` [Example 49, (S)-2-(4-(1H-indole-2-carbonyl)-3-methylpiperazin-1-yl)-N-(tert-butyl)-2-oxoacetamide], below 100 µM.
The result for `NC(=O)C1(CNC(=O)C(=O)N2CCN(C(=O)c3cc4ccccc4[nH]3)CC2)CC(F)(F)C1` [Example 21, 1-((2-(4-(1H-indole-2-carbonyl)piperazin-1-yl)-2-oxoacetamido)methyl)-3,3-difluorocyclobutane-1-carboxamide] reads 5 to 10 µM; that for `O=C(NCC1(O)CC1)C(=O)N1CCN(C(=O)c2cc3ccccc3[nH]2)CC1` [Example 18, 2-(4-(1H-indole-2-carbonyl)piperazin-1-yl)-N-((1-hydroxycyclopropyl)methyl)-2-oxoacetamide], below 100 µM.
`Cc1c(F)ccc2[nH]c(C(=O)N3CCN(C(=O)C(=O)NC(C)(C)C)CC3)cc12` [Example 46, N-(tert-butyl)-2-(4-(5-fluoro-4-methyl-1H-indole-2-carbonyl)piperazin-1-yl)-2-oxoacetamide] had an IC50 of 5 to 10 µM.
With `C[C@@H](NC(=O)C(=O)N1CCN(C(=O)c2cc3ccccc3[nH]2)CC1)C(F)(F)F` [Example 38, (R)-2-(4-(1H-indole-2-carbonyl)piperazin-1-yl)-2-oxo-N-(1,1,1-trifluoropropan-2-yl)acetamide], the IC50 is below 5 µM.
The same measure for `C[C@H](O)CNC(=O)C(=O)N1CCN(C(=O)c2cc3ccccc3[nH]2)CC1` [Example 36, (S)-2-(4-(1H-indole-2-carbonyl)piperazin-1-yl)-N-(2-hydroxypropyl)-2-oxoacetamide]: below 5 µM.
Compound `C[C@@H]1CN(C(=O)C(=O)NC(C)(C)C)CCN1C(=O)c1cc2ccccc2[nH]1` [Example 50, (R)-2-(4-(1H-indole-2-carbonyl)-3-methylpiperazin-1-yl)-N-(tert-butyl)-2-oxoacetamide] showed an IC50 below 5 µM.
The same measure for `NC(=O)C1(CNC(=O)C(=O)N2CCN(C(=O)c3cc4ccccc4[nH]3)CC2)CCC1` [Example 20, 1-((2-(4-(1H-indole-2-carbonyl)piperazin-1-yl)-2-oxoacetamido)methyl)cyclobutane-1-carboxamide]: below 100 µM; for `C#CCNC(=O)C(=O)N1CCN(C(=O)c2cc3ccccc3[nH]2)CC1` [Example 15, 2-(4-(1H-indole-2-carbonyl)piperazin-1-yl)-2-oxo-N-(prop-2-yn-1-yl)acetamide]: below 5 µM; for `CC(C)(CC(F)(F)F)NC(=O)C(=O)N1CCN(C(=O)c2cc3ccccc3[nH]2)CC1` [Example 69, 2-[4-(1H-indole-2-carbonyl)piperazin-1-yl]-2-oxo-N-(4,4,4-trifluoro-2-methylbutan-2-yl)acetamide]: below 5 µM.
The same measure for `O=C(NC1CCOCC1)C(=O)N1CCN(C(=O)c2cc3ccccc3[nH]2)CC1` [Example 40, 2-(4-(1H-indole-2-carbonyl)piperazin-1-yl)-2-oxo-N-(tetrahydro-2H-pyran-4-yl)acetamide]: 5 to 10 µM; for `CC(C)(C)NC(=O)C(=O)N1CCN(C(=O)c2cc3cc(F)c(F)cc3[nH]2)CC1` [Example 42, N-tert-butyl-2-[4-(5,6-difluoro-1H-indole-2-carbonyl)piperazin-1-yl]-2-oxoacetamide]: 5 to 10 µM.
In turn, `O=C(N[C@H]1CC[C@@H](O)CC1)C(=O)N1CCN(C(=O)c2cc3ccccc3[nH]2)CC1` [Example 16, 2-(4-(1H-indole-2-carbonyl)piperazin-1-yl)-N-((1s,4s)-4-hydroxycyclohexyl)-2-oxoacetamide] gave an IC50 of 5 to 10 µM.
In turn, `O=C1CC2(CC(CNC(=O)C(=O)N3CCN(C(=O)c4cc5ccccc5[nH]4)CC3)C2)N1` (stereo not shown) [Example 19, 2-(4-(1H-indole-2-carbonyl)piperazin-1-yl)-2-oxo-N-((2-oxo-1-azaspiro[3.3]heptan-6-yl)methyl)acetamide] showed an IC50 below 100 µM.
`O=C(N[C@H]1C[C@H](O)C1)C(=O)N1CCN(C(=O)c2cc3ccccc3[nH]2)CC1` [Example 17, 2-(4-(1H-indole-2-carbonyl)piperazin-1-yl)-N-((1 r,3 r)-3-hydroxycyclobutyl)-2-oxoacetamide] returned an IC50 of 5 to 10 µM.

As usually defined, the IC50 is the concentration needed to halve the response being measured. Low readings indicate greater potency, high ones weaker potency.
